Test system: Acinetobacter baumannii ST15 (NDM-1 OXA-51, ADC-263)
Assay: Checkerboard MIC, fixed concentration of sBLI (Examples 11-17)
Format: cell-based
Text: The antibiotics and serine β-lactamase-inhibitors (sBLIs) were purchased from the following suppliers: Ceftazidime (CAZ): Sigma-Aldrich; Cefepime (FEP): Sigma-Aldrich; Cefpodoxime (CEFP): MedChemExpress; Sulbactam (SUL): Sigma-Aldrich Avibactam (AVI): Biosynth; Vaborbactam (VAB): ABCR; Tazobactam (TAZ): Sigma-Aldrich; Taniborbactam (TAN): Sigma-Aldrich.
In each of Examples 3-23, the compound of Example 26 of WO 2018/033719 was employed as the zinc chelator. The following abbreviations are used in these examples: sBLI means serine-β-lactamase inhibitor; CFU means colony-forming unit, which is a group of microbes that grows from a single cell on a petri plate; DMSO means dimethyl sulfoxide; MHB means Mueller-Hinton broth; caMHB means cation-adjusted Mueller-Hinton broth; MIC means minimum inhibitory concentration—the lower the MIC, the more efficient the combination against the respective bacterial strain.
General Protocol 2 Used in Examples 11-23 Employing a Fixed Concentration of sBLI within Each Experiment:
Antimicrobial susceptibility testing (AST) by broth microdilution (MIC determination) was performed according to The European Committee on Antimicrobial Susceptibility Testing (EUCAST) guidelines (see Reading guide for broth microdilution Version 5.0, 2024: https://www.eucast.org).
Sterile clear round bottom polystyrene (non-treated) 96-well microplates (Corning 3788) were used for making serial two-fold dilutions of the antibiotic in cation-adjusted Mueller Hinton II broth (caMHB; Thermo Scientific, T3462, containing 29.4 μM Zn^2+ or MILLIPORE, 90922-500G, containing 5.6 μM Zn^2+), across the columns of the microtiter plate (128-0.06 μg/mL; columns 1-12).
The checkerboard plates were all modified by adding a serine β-lactamase inhibitor (sBLI) at a fixed concentration of 16 μg/mL. Additionally, the zinc chelator was added at various fixed concentrations. Samples were mixed so that all plates contained a control containing antibiotic alone (no sBLI, no zinc chelator), a sample containing antibiotic and sBLI (double combination; no zinc chelator), and a sample containing antibiotic, sBLI and zinc chelator (triple combination). All test wells used in each plate contained growth medium (caMHB), and inoculated bacteria at a final inoculum between 3-7×10^5 CFU/mL. […] Synergy for the triple combination (antibiotic, sBLI, and zinc chelator) was defined as when the MIC in any of the rows containing the zinc chelator in combination with antibiotic and sBLI (triple combination), was lower than for antibiotic alone and lower than for the antibiotic and sBLI double combination.
(§1) An X in rows 1-4 in the table indicates growth of the bacterial inoculum, while a blank cell indicates no growth. Concentrations (μg/mL) of FEP are given in row 0. AVI and the zinc chelator were added in fixed concentrations (AVI at 16 μg/mL in rows 2-4, zinc chelator at 16 μg/mL in row 3 and at 8 μg/mL in row 4). As a control, the effect of FEP alone was tested (row 1). All wells contained bacterial growth medium (caMHB, 29.4 μM Zn^2+) and were inoculated with the test bacterium. The grey cells indicate the FEP MIC.
as §1, with “SUL” for “AVI”, “(SUL” for “(AVI”
An X in rows 1-4 in the table indicates growth of the bacterial inoculum, while a blank cell indicates no growth. Concentrations (μg/mL) of FEP are given in row 0. TAZ and the zinc chelator were added in fixed concentrations (TAZ at 16 μg/mL in rows 2-4, zinc chelator at 16 μg/mL in row 3 and at 8 μg/mL in row 4). […]

Measured: synergy with the zinc chelator

CN(C[C@H](O)[C@@H](O)[C@H](O)[C@H](O)CO)C(=O)c1ccc(CN(Cc2ccccn2)Cc2ccccn2)nc1 [zinc chelator]
Synergy: zinc chelator 4 μg/mL, with CEFP and SUL 16 μg/mL, caMHB 5.6 μM Zn2+ | zinc chelator 4 μg/mL, with FEP and AVI 16 μg/mL, caMHB 5.6 μM Zn2+ | zinc chelator 8 μg/mL, with CEFP and SUL 16 μg/mL, caMHB 5.6 μM Zn2+ | zinc chelator 8 μg/mL, with FEP and AVI 16 μg/mL, caMHB 5.6 μM Zn2+ | zinc chelator 8 μg/mL, with FEP and AVI 16 μg/mL, caMHB 29.4 μM Zn2+ | zinc chelator 8 μg/mL, with FEP and SUL 16 μg/mL, caMHB 29.4 μM Zn2+ | zinc chelator 8 μg/mL, with FEP and TAZ 16 μg/mL, caMHB 5.6 μM Zn2+ | zinc chelator 8 μg/mL, with FEP and TAZ 16 μg/mL, caMHB 29.4 μM Zn2+ | zinc chelator 16 μg/mL, with CEFP and SUL 16 μg/mL, caMHB 5.6 μM Zn2+ | zinc chelator 16 μg/mL, with CEFP and SUL 16 μg/mL, caMHB 29.4 μM Zn2+ | zinc chelator 16 μg/mL, with FEP and AVI 16 μg/mL, caMHB 29.4 μM Zn2+ | zinc chelator 16 μg/mL, with FEP and SUL 16 μg/mL, caMHB 29.4 μM Zn2+ | zinc chelator 16 μg/mL, with FEP and TAZ 16 μg/mL, caMHB 5.6 μM Zn2+ | zinc chelator 16 μg/mL, with FEP and TAZ 16 μg/mL, caMHB 29.4 μM Zn2+

Reference: patent US20260325538A1, “THERAPY” (priority 2023, published 2026)
